Read-outs that look alike come from different tables or passages of the source.
Assays:
ABL1 = target: T1, ABL1 (Homo sapiens, UniProt P00519); experiment: Thermal shift assay; type: binding; details: read-out: ΔTm ABL1
T1 construct: purchased in-house thermal shift (DSF) kinase panel (SGC Frankfurt); Promega NanoBRET for AURKA/B/C
T1 sequence (P00519 229-512): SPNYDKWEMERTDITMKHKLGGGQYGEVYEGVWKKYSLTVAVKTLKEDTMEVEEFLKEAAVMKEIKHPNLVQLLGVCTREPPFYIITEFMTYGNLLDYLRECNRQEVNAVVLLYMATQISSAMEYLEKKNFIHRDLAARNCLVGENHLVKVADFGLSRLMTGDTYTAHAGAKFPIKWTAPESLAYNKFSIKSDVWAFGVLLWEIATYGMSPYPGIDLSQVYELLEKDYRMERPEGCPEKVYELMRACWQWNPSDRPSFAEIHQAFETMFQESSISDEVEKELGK

CLK1 = target: T2, CLK1 (Homo sapiens, UniProt P49759); experiment: Thermal shift assay; type: binding; details: read-out: ΔTm CLK1
T2 construct: purchased in-house thermal shift (DSF) kinase panel (SGC Frankfurt); Promega NanoBRET for AURKA/B/C

CSNK1D = target: T3, CSNK1D (Homo sapiens, UniProt P48730); experiment: Thermal shift assay; type: binding; details: read-out: ΔTm CSNK1D
T3 construct: purchased in-house thermal shift (DSF) kinase panel (SGC Frankfurt); Promega NanoBRET for AURKA/B/C
T3 sequence (P48730 1-294): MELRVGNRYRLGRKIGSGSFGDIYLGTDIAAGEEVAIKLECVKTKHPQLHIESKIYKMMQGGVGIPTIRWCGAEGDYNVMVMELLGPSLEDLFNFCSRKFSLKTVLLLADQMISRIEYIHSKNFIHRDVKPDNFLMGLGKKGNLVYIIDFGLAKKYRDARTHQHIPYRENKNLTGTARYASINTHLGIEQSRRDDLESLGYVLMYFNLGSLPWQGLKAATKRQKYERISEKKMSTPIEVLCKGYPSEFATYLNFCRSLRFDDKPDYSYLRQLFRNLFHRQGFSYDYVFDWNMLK

DYRK1A = target: T4, DYRK1A (Homo sapiens, UniProt Q13627); experiment: Thermal shift assay; type: binding; details: read-out: ΔTm DYRK1A
T4 construct: purchased in-house thermal shift (DSF) kinase panel (SGC Frankfurt); Promega NanoBRET for AURKA/B/C

GSG2 = target: T5, GSG2 (Homo sapiens, UniProt Q8TF76); experiment: Thermal shift assay; type: binding; details: read-out: ΔTm GSG2
T5 construct: purchased in-house thermal shift (DSF) kinase panel (SGC Frankfurt); Promega NanoBRET for AURKA/B/C
T5 sequence (Q8TF76 465-798): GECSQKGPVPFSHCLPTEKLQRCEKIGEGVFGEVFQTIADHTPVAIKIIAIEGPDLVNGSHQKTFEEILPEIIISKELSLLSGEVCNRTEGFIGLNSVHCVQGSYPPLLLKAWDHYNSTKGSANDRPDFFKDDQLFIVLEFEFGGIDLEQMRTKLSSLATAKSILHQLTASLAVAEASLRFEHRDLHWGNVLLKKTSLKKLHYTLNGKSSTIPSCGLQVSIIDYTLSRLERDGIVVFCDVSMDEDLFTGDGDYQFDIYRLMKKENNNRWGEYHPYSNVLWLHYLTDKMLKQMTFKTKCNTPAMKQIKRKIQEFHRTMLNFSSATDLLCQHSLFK

MAP2K6 = target: T6, MAP2K6 (Homo sapiens, UniProt P52564); experiment: Thermal shift assay; type: binding; details: read-out: ΔTm MAP2K6
T6 construct: purchased in-house thermal shift (DSF) kinase panel (SGC Frankfurt); Promega NanoBRET for AURKA/B/C
T6 sequence (P52564 47-334): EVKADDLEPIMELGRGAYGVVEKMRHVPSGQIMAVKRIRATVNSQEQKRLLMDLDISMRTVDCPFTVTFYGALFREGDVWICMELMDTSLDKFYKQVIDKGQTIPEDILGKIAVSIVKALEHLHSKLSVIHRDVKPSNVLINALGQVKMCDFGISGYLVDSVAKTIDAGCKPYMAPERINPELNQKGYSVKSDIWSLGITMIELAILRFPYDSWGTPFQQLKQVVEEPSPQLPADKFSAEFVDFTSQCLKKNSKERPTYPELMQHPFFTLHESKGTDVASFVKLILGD

MAPK1 = target: T7, MAPK1 (Homo sapiens, UniProt P28482); experiment: Thermal shift assay; type: binding; details: compound 10 µM; n = 3
T7 construct: purchased in-house thermal shift (DSF) kinase panel (SGC Frankfurt); Promega NanoBRET for AURKA/B/C

CAMKK2 = target: T8, CAMKK2 (Homo sapiens, UniProt Q96RR4); experiment: Thermal shift assay; type: binding; details: read-out: ΔTm CAMKK2
T8 construct: purchased in-house thermal shift (DSF) kinase panel (SGC Frankfurt); Promega NanoBRET for AURKA/B/C

PAK1 = target: T9, PAK1 (Homo sapiens, UniProt Q13153); experiment: Thermal shift assay; type: binding; details: read-out: ΔTm PAK1
T9 construct: purchased in-house thermal shift (DSF) kinase panel (SGC Frankfurt); Promega NanoBRET for AURKA/B/C

STK17A = target: T10, STK17A (Homo sapiens, UniProt Q9UEE5); experiment: Thermal shift assay; type: binding; details: read-out: ΔTm STK17A
T10 construct: purchased in-house thermal shift (DSF) kinase panel (SGC Frankfurt); Promega NanoBRET for AURKA/B/C
T10 sequence (Q9UEE5 61-321): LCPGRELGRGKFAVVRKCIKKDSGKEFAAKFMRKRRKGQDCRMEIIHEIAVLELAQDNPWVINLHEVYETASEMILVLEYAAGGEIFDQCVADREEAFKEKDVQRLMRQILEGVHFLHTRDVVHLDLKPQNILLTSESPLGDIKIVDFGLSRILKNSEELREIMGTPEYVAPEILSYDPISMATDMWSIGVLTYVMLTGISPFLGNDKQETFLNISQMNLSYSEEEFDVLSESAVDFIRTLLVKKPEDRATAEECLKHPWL

STK3 = target: T11, STK3 (Homo sapiens, UniProt Q13188); experiment: Thermal shift assay; type: binding; details: read-out: ΔTm STK3
T11 construct: purchased in-house thermal shift (DSF) kinase panel (SGC Frankfurt); Promega NanoBRET for AURKA/B/C
T11 sequence (Q13188 16-313): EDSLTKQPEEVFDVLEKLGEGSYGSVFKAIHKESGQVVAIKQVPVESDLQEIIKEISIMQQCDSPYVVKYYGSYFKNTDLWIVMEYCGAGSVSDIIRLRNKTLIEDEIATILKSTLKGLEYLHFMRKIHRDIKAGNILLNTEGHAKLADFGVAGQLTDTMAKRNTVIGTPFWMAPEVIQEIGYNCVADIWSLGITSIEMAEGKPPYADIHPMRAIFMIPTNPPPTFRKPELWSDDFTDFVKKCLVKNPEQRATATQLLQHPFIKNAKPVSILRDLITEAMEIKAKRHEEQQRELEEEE

STK39 = target: T12, STK39 (Homo sapiens, UniProt Q9UEW8); experiment: Thermal shift assay; type: binding; details: read-out: ΔTm STK39
T12 construct: purchased in-house thermal shift (DSF) kinase panel (SGC Frankfurt); Promega NanoBRET for AURKA/B/C

STK26 = target: T13, STK26 (Homo sapiens, UniProt Q9P289); experiment: Thermal shift assay; type: binding; details: read-out: ΔTm STK26
T13 construct: purchased in-house thermal shift (DSF) kinase panel (SGC Frankfurt); Promega NanoBRET for AURKA/B/C

MCD4 cells = experiment: AQP2 redistribution, immunofluorescence microscopy; details: forskolin 30 µM, 30 min; for inhibition of the forskolin-induced redistribution of AQP2 to the plasma membrane: compound 30 µM, 1 h (Aurora-A inhibitor I 1-30 µM)

T13 sequence (Q9P289 1-300): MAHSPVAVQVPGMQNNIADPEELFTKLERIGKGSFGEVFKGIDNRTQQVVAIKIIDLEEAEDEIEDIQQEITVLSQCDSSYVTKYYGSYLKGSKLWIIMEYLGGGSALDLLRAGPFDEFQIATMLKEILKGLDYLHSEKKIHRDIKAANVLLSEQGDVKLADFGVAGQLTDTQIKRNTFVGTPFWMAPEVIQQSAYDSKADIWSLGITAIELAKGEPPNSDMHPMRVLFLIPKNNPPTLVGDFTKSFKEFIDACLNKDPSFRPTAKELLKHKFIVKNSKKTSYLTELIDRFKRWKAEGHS
T2 sequence (P49759 148-484): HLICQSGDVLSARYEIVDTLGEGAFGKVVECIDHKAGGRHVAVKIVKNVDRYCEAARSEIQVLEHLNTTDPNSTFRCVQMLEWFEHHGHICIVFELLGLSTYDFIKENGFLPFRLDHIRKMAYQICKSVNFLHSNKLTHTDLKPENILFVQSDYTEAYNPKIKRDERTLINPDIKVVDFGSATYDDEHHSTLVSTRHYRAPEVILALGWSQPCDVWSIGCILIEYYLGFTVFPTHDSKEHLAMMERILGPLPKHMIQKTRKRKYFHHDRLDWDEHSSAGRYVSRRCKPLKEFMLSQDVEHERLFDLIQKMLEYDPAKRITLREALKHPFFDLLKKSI
T7 sequence (P28482 whole entry): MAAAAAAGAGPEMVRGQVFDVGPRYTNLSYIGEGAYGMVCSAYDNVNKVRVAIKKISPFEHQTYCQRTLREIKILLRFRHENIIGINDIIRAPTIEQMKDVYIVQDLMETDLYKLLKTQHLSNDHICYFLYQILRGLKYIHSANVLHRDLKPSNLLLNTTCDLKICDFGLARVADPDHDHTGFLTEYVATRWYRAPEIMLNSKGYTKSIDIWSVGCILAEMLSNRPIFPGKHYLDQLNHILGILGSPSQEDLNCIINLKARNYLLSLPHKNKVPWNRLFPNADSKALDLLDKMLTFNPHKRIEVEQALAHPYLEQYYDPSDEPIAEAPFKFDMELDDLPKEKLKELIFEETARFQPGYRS
T8 sequence (Q96RR4 161-449): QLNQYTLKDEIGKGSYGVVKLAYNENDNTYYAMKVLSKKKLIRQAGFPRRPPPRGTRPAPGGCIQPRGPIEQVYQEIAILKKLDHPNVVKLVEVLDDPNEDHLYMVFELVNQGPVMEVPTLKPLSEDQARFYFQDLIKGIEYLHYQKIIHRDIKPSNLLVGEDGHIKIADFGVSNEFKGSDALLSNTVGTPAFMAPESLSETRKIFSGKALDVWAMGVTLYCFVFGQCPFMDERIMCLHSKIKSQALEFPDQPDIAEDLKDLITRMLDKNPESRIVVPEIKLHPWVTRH
T9 sequence (Q13153 249-545): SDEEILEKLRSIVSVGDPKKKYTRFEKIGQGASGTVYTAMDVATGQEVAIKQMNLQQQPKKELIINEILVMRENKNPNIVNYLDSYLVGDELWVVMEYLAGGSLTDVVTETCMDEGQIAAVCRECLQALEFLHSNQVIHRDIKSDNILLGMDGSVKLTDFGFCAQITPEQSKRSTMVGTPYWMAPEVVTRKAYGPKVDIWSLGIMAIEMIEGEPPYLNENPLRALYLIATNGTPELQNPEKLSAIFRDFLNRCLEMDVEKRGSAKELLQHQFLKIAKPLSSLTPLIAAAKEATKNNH

Row | SMILES | ΔTm at 10 µM (MAPK1) | inhibition of the forskolin-induced redistribution of AQP2 to the plasma membrane (MCD4 cells) | ΔTm at 10 µM (ABL1; compound 10 µM, n = 3) | ΔTm at 10 µM (CLK1; compound 10 µM, n = 3) | ΔTm at 10 µM (CSNK1D; compound 10 µM, n = 3) | ΔTm at 10 µM (DYRK1A; compound 10 µM, n = 3) | ΔTm at 10 µM (GSG2; compound 10 µM, n = 3) | ΔTm at 10 µM (MAP2K6; compound 10 µM, n = 3) | ΔTm at 10 µM (CAMKK2; compound 10 µM, n = 3) | ΔTm at 10 µM (PAK1; compound 10 µM, n = 3) | ΔTm at 10 µM (STK17A; compound 10 µM, n = 3) | ΔTm at 10 µM (STK3; compound 10 µM, n = 3) | ΔTm at 10 µM (STK39; compound 10 µM, n = 3) | ΔTm at 10 µM (STK26; compound 10 µM, n = 3) | also measured
1 | CCN1CCN(C(=O)Cc2ccc(Nc3ncc(F)c(Nc4ccc(C(=O)Nc5ccccc5Cl)cc4)n3)cc2)CC1 [Aurora-A inhibitor I, reference compound] | 0.4 °C | inhibits | – | – | – | – | – | – | – | – | – | – | – | – | ΔTm at 10 µM (ABL1): 3.1 °C; ΔTm at 10 µM (CLK1): 1.5 °C; ΔTm at 10 µM (CSNK1D): 0.2 °C; ΔTm at 10 µM (DYRK1A): 0.4 °C; ΔTm at 10 µM (GSG2): 0 °C; ΔTm at 10 µM (MAP2K6): 0.6 °C; ΔTm at 10 µM (CAMKK2): 2.3 °C; ΔTm at 10 µM (PAK1): 0.5 °C; ΔTm at 10 µM (STK17A): 1.9 °C; ΔTm at 10 µM (STK3): 2.6 °C; ΔTm at 10 µM (STK39): 2.4 °C; ΔTm at 10 µM (STK26): 0.6 °C; effective concentration for inhibition of AQP2 redistribution (MCD4 cells; 1, 10 or 30 µM, 1 h): greater than 1 µM
2 | O=C(Cc1ccc(Nc2ncc(F)c(Nc3ccc(C(=O)Nc4ccccc4Cl)cc3)n2)cc1)NCCN1CCOCC1 [ERJ2-04] | 0.3 °C | not different from that in cells treated with the compound solvent, DMSO | 1.1 °C | 0.4 °C | 0 °C | -0.7 °C | 0 °C | 0.4 °C | 1.3 °C | 0.6 °C | 1.4 °C | 1.3 °C | 2.1 °C | 0.4 °C | –
3 | NC(=O)Cc1ccc(Nc2ncc(F)c(Nc3ccc(C(=O)Nc4ccccc4Cl)cc3)n2)cc1 [ERJ2-06] | 0.1 °C | – | 1.7 °C | 1.7 °C | 0 °C | 0.8 °C | 0.2 °C | 0.8 °C | 2.2 °C | 0.7 °C | 2.2 °C | 3.1 °C | 2.4 °C | 1.7 °C | –
4 | CCN1CCN(C(=O)Cc2ccc(Nc3ncc(F)c(Nc4ccc(C(=O)Nc5ccccc5)cc4)n3)cc2)CC1 [ERJ2-11] | -0.1 °C | – | 3.6 °C | 1.5 °C | 0.2 °C | -0.6 °C | 0 °C | 0.7 °C | 3.1 °C | 0.5 °C | 1.8 °C | 2 °C | 2.6 °C | 1.3 °C | –
5 | CCN1CCN(C(=O)Cc2ccc(Nc3ncc(F)c(Nc4ccc(C(=O)O)cc4)n3)cc2)CC1 [ERJ2-12] | -0.1 °C | not different from that in cells treated with the compound solvent, DMSO | 2.6 °C | 0.5 °C | 0.2 °C | -1.3 °C | 0 °C | 0.8 °C | 1.8 °C | 0.2 °C | 0.4 °C | 0.1 °C | 0.2 °C | -0.2 °C | –

— article PMC8776063, “Aurora Kinase A Is Involved in Controlling the Localization of Aquaporin-2 in Renal Principal Cells” (International Journal of Molecular Sciences, 2022)
